In patent US9630956B2, “Compounds useful as inhibitors of ATR kinase” (Vertex Pharmaceuticals Incorporated, priority 2010, dated 2017):
Like-named read-outs stand apart in the source and are kept apart here.

Biological target: full-length ATR (Homo sapiens (Human), UniProt Q13535)
Assay: ATR Inhibition Assay (radioactive-phosphate incorporation)
Assay type: biochemical
Description: Compounds were screened for their ability to inhibit ATR kinase using a radioactive-phosphate incorporation assay. Assays were carried out in a mixture of 50 mM Tris/HCl (pH 7.5), 10 mM MgCl2 and 1 mM DTT. Final substrate concentrations were 10 μM [γ-33P]ATP (3 mCi 33P ATP/mmol ATP, Perkin Elmer) and 800 μM target peptide ([…]).
Assays were carried out at 25° C. in the presence of 5 nM full-length ATR. An assay stock buffer solution was prepared containing all of the reagents listed above, with the exception of ATP and the test compound of interest. 13.5 μL of the stock solution was placed in a 96 well plate followed by addition of 2 μL of DMSO stock containing serial dilutions of the test compound (typically starting from a final concentration of 15 μM with 3-fold serial dilutions) in duplicate (final DMSO concentration 7%). The plate was pre-incubated for 10 minutes at 25° C. and the reaction initiated by addition of 15 μL [γ-33P]ATP (final concentration 10 μM).
The reaction was stopped after 24 hours by the addition of 30 μL 0.1 M phosphoric acid containing 2 mM ATP. A multiscreen phosphocellulose filter 96-well plate (Millipore, Cat no. MAPHNOB50) was pretreated with 100 μL 0.2M phosphoric acid prior to the addition of 45 μL of the stopped assay mixture. The plate was washed with 5×200 μL 0.2M phosphoric acid. After drying, 100 μL Optiphase ‘SuperMix’ liquid scintillation cocktail (Perkin Elmer) was added to the well prior to scintillation counting (1450 Microbeta Liquid Scintillation Counter, Wallac).
After removing mean background values for all of the data points, Ki(app) data were calculated from non-linear regression analysis of the initial rate data using the Prism software package (GraphPad Prism version 3.0cx for Macintosh, GraphPad Software, San Diego Calif., USA).
Below is a chart showing the ATR Inhibition Ki values of compounds of the disclosure.

[1] = ATR Inhibition Ki(app), 10 μM ATP, 800 μM target peptide, 5 nM full-length ATR, 25° C.

full-length ATR, sequence (Q13535 whole entry): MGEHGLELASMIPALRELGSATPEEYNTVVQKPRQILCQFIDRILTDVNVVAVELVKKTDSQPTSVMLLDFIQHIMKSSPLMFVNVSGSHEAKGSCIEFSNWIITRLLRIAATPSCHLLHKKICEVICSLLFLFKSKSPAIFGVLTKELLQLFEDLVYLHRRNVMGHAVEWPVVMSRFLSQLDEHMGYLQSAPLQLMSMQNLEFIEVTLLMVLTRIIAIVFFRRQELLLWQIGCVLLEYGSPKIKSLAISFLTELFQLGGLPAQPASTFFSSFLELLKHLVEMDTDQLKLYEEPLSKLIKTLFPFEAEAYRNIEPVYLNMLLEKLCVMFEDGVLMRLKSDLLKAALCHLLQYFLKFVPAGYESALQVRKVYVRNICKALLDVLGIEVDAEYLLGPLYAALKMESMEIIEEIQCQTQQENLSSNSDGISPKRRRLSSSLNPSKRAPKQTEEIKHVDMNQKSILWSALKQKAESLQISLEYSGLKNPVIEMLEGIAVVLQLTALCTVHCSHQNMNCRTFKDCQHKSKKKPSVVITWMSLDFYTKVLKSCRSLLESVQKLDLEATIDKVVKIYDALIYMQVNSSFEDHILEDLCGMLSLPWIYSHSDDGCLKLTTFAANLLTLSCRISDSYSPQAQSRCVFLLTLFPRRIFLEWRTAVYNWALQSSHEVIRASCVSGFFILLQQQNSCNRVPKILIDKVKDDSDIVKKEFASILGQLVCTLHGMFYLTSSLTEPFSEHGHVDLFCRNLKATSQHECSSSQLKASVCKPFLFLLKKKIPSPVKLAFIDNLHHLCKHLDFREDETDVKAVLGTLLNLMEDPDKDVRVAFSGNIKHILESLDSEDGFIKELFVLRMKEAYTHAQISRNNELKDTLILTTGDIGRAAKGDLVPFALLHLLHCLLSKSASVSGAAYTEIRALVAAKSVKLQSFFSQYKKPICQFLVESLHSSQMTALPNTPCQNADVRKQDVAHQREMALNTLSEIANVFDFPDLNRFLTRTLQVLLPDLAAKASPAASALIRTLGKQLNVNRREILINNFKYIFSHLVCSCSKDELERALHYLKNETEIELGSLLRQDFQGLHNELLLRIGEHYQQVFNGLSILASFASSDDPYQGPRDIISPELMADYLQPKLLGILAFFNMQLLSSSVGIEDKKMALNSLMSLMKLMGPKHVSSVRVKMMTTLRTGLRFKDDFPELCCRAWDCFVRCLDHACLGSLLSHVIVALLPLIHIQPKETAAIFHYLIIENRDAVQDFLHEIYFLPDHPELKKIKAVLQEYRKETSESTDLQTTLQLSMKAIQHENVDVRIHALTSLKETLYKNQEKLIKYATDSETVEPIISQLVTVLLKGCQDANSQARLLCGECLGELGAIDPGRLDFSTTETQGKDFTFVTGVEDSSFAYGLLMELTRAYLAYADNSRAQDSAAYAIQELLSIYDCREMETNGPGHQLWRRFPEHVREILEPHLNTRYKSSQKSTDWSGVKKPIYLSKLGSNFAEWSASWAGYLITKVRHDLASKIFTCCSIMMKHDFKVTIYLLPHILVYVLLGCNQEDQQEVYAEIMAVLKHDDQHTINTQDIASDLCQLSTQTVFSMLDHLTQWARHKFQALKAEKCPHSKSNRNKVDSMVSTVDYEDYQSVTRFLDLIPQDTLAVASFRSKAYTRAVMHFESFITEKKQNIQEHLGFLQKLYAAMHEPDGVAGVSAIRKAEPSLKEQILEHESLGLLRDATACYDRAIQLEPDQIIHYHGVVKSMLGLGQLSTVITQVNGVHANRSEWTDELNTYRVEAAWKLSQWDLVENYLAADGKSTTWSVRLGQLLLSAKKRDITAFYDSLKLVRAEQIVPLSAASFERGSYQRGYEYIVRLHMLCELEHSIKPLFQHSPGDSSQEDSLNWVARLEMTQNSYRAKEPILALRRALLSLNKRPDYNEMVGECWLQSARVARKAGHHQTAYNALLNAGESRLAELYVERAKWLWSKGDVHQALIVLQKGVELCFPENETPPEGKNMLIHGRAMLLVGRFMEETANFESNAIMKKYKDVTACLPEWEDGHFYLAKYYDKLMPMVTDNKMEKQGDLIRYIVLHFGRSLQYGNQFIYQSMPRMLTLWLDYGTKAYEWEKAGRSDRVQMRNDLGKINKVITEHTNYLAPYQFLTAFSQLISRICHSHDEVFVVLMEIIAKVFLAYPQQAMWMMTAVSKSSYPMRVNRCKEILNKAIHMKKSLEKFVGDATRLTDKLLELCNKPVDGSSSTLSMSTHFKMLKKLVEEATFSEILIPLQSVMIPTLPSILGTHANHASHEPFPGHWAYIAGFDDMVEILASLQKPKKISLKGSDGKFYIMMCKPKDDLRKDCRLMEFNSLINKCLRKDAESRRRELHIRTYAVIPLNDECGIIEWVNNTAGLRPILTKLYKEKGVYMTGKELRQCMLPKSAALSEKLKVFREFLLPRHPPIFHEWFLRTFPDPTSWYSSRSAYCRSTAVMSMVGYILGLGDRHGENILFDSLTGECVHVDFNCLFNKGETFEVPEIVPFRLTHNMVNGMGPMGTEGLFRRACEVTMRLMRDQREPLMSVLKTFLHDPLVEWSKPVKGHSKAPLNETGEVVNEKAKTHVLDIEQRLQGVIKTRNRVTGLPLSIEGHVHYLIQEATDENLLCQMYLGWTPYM

SMILES	Ki [1] [nM]	Ki [nM]
CNCc1ccc(-c2nnc(-c3nc(-c4ccc(=O)n(CCOC)c4)cnc3N)o2)cc1 [Compound I-2]		5 to 50
CNCc1ccc(-c2nnc(-c3nc(-c4ccc(=O)n(CCO)c4)cnc3N)o2)cc1 [Compound I-4]		5 to 50
CNCc1ccc(-c2nnc(-c3nc(-c4ccc(=O)n(CC#N)c4)cnc3N)o2)cc1 [Compound I-7]	5 to 50	
CNCc1ccc(-c2nnc(-c3nc(-c4ccc(=O)n(C5CCOC5)c4)cnc3N)o2)c(OC)c1 (stereo not shown) [Compound I-8]		5 to 50
CNCc1ccc(-c2nnc(-c3nc(-c4ccc(=O)n(C(C)C)c4)cnc3N)o2)c(F)c1 [Compound I-10]	≤ 5	
CNCc1ccc(-c2nnc(-c3nc(-c4ccc(=O)n(C(C)C)c4)cnc3N)o2)c(C)c1 [Compound I-12]	≤ 5	
CNCc1ccc(-c2nnc(-c3nc(-c4ccc(=O)n(C(C)C5CC5)c4)cnc3N)o2)c(C)c1 (stereo not shown) [Compound I-18]	≤ 5	
Cc1cc(CNC(C)C)ccc1-c1nnc(-c2nc(-c3ccc(=O)n(C(C)C)c3)cnc2N)o1 [Compound I-20]	≤ 5	
Cc1cc(CNC(C)(C)C)ccc1-c1nnc(-c2nc(-c3ccc(=O)n(C(C)C)c3)cnc2N)o1 [Compound I-21]	≤ 5	
CC(C)n1cc(-c2cnc(N)c(-c3cc(-c4ccc(CN[C@H]5CCOC5)cc4)no3)n2)ccc1=O [Compound I-23]	≤ 5	
CNCc1ccc(-c2nnc(-c3nc(-c4ccc(=O)n(CC(C)C)c4)cnc3N)o2)c(OC)c1 [Compound I-26]	≤ 5	
CNCc1ccc(-c2nnc(-c3nc(-c4ccc(=O)n(CC(F)(F)F)c4)cnc3N)o2)c(C)c1 [Compound I-27]	≤ 5	
CNCc1ccc(-c2nnc(-c3nc(-c4ccc(=O)n(CC(F)(F)F)c4)cnc3N)o2)c(OC)c1 [Compound I-28]	≤ 5	
CC#CC(C)n1cc(-c2cnc(N)c(-c3nnc(-c4ccc(CNC)cc4C)o3)n2)ccc1=O (stereo not shown) [Compound I-30]	≤ 5	
COc1cc(CNC(C)(C)C)ccc1-c1nnc(-c2nc(-c3ccc(=O)n(C(C)C)c3)cnc2N)o1 [Compound I-35]	≤ 5	
CNCc1ccc(-c2nnc(-c3nc(-c4ccc(=O)n(C(C)CO)c4)cnc3N)o2)c(OC)c1 (stereo not shown) [Compound I-36]	≤ 5	
CNCc1ccc(-c2nnc(-c3nc(-c4ccc(=O)n(C(C)C(F)(F)F)c4)cnc3N)o2)c(OC)c1 (stereo not shown) [Compound I-41]	≤ 5	
CC(C)n1cc(-c2cnc(N)c(-c3nnc(-c4cccc(CNC(C)(C)C)c4)o3)n2)ccc1=O [Compound I-46]	50 to 100	
Nc1ncc(-c2ccc(=O)n(C3CCCC3)c2)nc1-c1cc(-c2ccc(CN3CCCC3)cc2)no1 [Compound I-51]		5 to 50
CC(C)n1cc(-c2cnc(N)c(-c3cc(-c4ccc(C(N)CF)cc4)no3)n2)ccc1=O (stereo not shown) [Compound I-59]	5 to 50	
CC(C)n1cc(-c2cnc(N)c(-c3cc(-c4ccc(CNc5ccccc5)cc4)no3)n2)ccc1=O [Compound I-65]		50 to 100
CNCc1ccc(-c2cc(-c3nc(-c4ccc(=O)n(C5CCOCC5)c4)cnc3N)on2)cc1 [Compound I-66]	≤ 5	
C=Cc1cc(-c2cnc(N)c(-c3cc(-c4ccc(CNC)cc4)no3)n2)cn(C(C)C)c1=O [Compound I-67]	50 to 100	
CNCc1ccc(-c2cc(-c3nc(-c4ccc(=O)n(CCN5CCCC5=O)c4)cnc3N)on2)cc1 [Compound I-70]	≤ 5	
CNCc1ccc(-c2cc(-c3nc(-c4cc(Br)c(=O)n(C(C)C)c4)cnc3N)on2)cc1 [Compound I-71]	5 to 50	
CCc1cc(-c2cnc(N)c(-c3cc(-c4ccc(CNC)cc4)no3)n2)cn(C(C)C)c1=O [Compound I-75]	50 to 100	
CNCc1ccc(-c2cc(-c3nc(-c4ccc(=O)n(CC5CCCO5)c4)cnc3N)on2)cc1 (stereo not shown) [Compound I-86]	≤ 5	
CNCc1ccc(-c2cc(-c3nc(-c4c[nH]c(=O)c(CO)c4)cnc3N)on2)cc1 [Compound I-88]	≤ 5	
CNCc1ccc(-c2cc(-c3nc(-c4ccc(=O)n(CCOC)c4)cnc3N)on2)cc1 [Compound I-95]	≤ 5	

Next, values leading:

Ki [1] [nM]	Ki [nM]	SMILES
5 to 50		CNCc1ccc(-c2nnc(-c3nc(-c4ccc(=O)n(C)c4)cnc3N)o2)cc1 [Compound I-1]
	50 to 100	CNCc1ccc(-c2nnc(-c3nc(-c4ccc(=O)n(CCCN)c4)cnc3N)o2)cc1 [Compound I-5]
	5 to 50	CNCc1ccc(-c2nnc(-c3nc(-c4ccc(=O)n(C5CCOC5)c4)cnc3N)o2)cc1 (stereo not shown) [Compound I-9]
≤ 5		Cc1cc(CN[C@H]2CCOC2)ccc1-c1nnc(-c2nc(-c3ccc(=O)n(C(C)C)c3)cnc2N)o1 [Compound I-13, 5-[5-amino-6-[5-[2-methyl-4-[[[(3S)-tetrahydrofuran-3-yl]amino]methyl]phenyl]-1,3,4-oxadiazol-2-yl]pyrazin-2-yl]-1-isopropyl-pyridin-2-one]
≤ 5		CNCc1ccc(-c2nnc(-c3nc(-c4ccc(=O)n(C5CCCC5)c4)cnc3N)o2)c(C)c1 [Compound I-14]
≤ 5		CNCc1ccc(-c2nnc(-c3nc(-c4ccc(=O)n(C(C)C#N)c4)cnc3N)o2)c(C)c1 (stereo not shown) [Compound I-16]
≤ 5		CNCc1ccc(-c2nnc(-c3nc(-c4ccc(=O)n(C(C)COC)c4)cnc3N)o2)c(C)c1 (stereo not shown) [Compound I-17]
≤ 5		CCn1cc(-c2cnc(N)c(-c3nnc(-c4ccc(CNC)cc4OC)o3)n2)ccc1=O [Compound I-19]
	5 to 50	CNCc1ccc(-c2nnc(-c3nc(-c4ccc(=O)n(CCN(C)C)c4)cnc3N)o2)c(C)c1 [Compound I-24, 5-[5-amino-6-[5-[2-methyl-4-(methylaminomethyl)phenyl]-1,3,4-oxadiazol-2-yl]pyrazin-2-yl]-1-(2-dimethylaminoethyl)pyridin-2-one]
≤ 5		CCC(C)n1cc(-c2cnc(N)c(-c3nnc(-c4ccc(CNC)cc4OC)o3)n2)ccc1=O (stereo not shown) [Compound I-25]
≤ 5		CNCc1ccc(-c2cc(-c3nc(-c4ccc(=O)n(C(C)C)c4)cnc3N)on2)c(F)c1 [Compound I-29]
5 to 50		CNCc1ccc(-c2nnc(-c3nc(-c4ccc(=O)n(C(C)CF)c4)cnc3N)o2)c(C)c1 (stereo not shown) [Compound I-31]
≤ 5		CNCc1ccc(-c2nnc(-c3nc(-c4ccc(=O)n(C5CCC5)c4)cnc3N)o2)c(C)c1 [Compound I-33]
≤ 5		CNCc1ccc(-c2nnc(-c3nc(-c4ccc(=O)n(C(C)C#N)c4)cnc3N)o2)c(OC)c1 (stereo not shown) [Compound I-34, 2-[5-[5-amino-6-[5-[2-methoxy-4-(methylaminomethyl)phenyl]-1,3,4-oxadiazol-2-yl]pyrazin-2-yl]-2-oxo-1-pyridyl]propanenitrile]
	5 to 50	CNCc1ccc(-c2nnc(-c3nc(-c4ccc(=O)n(C(C)C(=O)O)c4)cnc3N)o2)c(C)c1 (stereo not shown) [Compound I-38, 2-[5-[5-amino-6-[5-[2-methyl-4-(methylaminomethyl)phenyl]-1,3,4-oxadiazol-2-yl]pyrazin-2-yl]-2-oxo-1-pyridyl]propanoic acid]
5 to 50		CC(C)n1cc(-c2cnc(N)c(-c3nnc(-c4ccc(CNC(C)(C)C)cc4C#N)o3)n2)ccc1=O [Compound I-40]
5 to 50		CC(N)c1ccc(-c2nnc(-c3nc(-c4ccc(=O)n(C(C)C)c4)cnc3N)o2)cc1 (stereo not shown) [Compound I-45]
	5 to 50	CNCc1cccc(-c2nnc(-c3nc(-c4ccc(=O)n(C(C)C)c4)cnc3N)o2)c1 [Compound I-47, 5-[5-amino-6-[5-[3-(methylaminomethyl)phenyl]-1,3,4-oxadiazol-2-yl]pyrazin-2-yl]-1-isopropyl-pyridin-2-one]
	5 to 50	CC(C)(CO)NCc1ccc(-c2cc(-c3nc(-c4ccc(=O)n(C5CCCC5)c4)cnc3N)on2)cc1 [Compound I-52]
≤ 5		CNCc1ccc(-c2cc(-c3nc(-c4ccc(=O)n(C5CCCC5)c4)cnc3N)on2)c(F)c1 [Compound I-56]
≤ 5		CNCc1ccc(-c2cc(-c3nc(-c4ccc(=O)n(Cc5ccoc5)c4)cnc3N)on2)cc1 [Compound I-69]
5 to 50		CNCc1ccc(-c2cc(-c3nc(-c4ccc(=O)[nH]c4)cnc3N)on2)cc1 [Compound I-76]
≤ 5		CNCc1ccc(-c2cc(-c3nc(-c4ccc(=O)n(C(C)C5CC5)c4)cnc3N)on2)cc1 (stereo not shown) [Compound I-79]
≤ 5		CNCc1ccc(-c2cc(-c3nc(-c4ccc(=O)n(Cc5nccs5)c4)cnc3N)on2)cc1 [Compound I-84]
≤ 5		CNCc1ccc(-c2cc(-c3nc(-c4ccc(=O)n(Cc5nccn5C)c4)cnc3N)on2)cc1 [Compound I-85]
≤ 5		CNCc1ccc(-c2cc(-c3nc(-c4ccc(=O)n(C(C)C(=O)NC)c4)cnc3N)on2)cc1 (stereo not shown) [Compound I-91]
≤ 5		CNCc1ccc(-c2cc(-c3nc(-c4ccc(=O)n(CC(N)=O)c4)cnc3N)on2)cc1 [Compound I-98]
≤ 5		CC(C#N)n1cc(-c2cnc(N)c(-c3cc(-c4ccc(CNC5CC5)cc4)no3)n2)ccc1=O (stereo not shown) [Compound I-99]
≤ 5		CNCc1ccc(-c2cc(-c3nc(-c4c[nH]c(=O)c(C(C)C)c4)cnc3N)on2)cc1 [Compound I-100]
